This passage reports GI50 and GQ stabilization results from publication PMC7251123, “CX-5461 activates the DNA damage response and demonstrates therapeutic efficacy in high-grade serous ovarian cancer” (Nature Communications, 2020).

One assay deals with OVCAR3. Put plainly: Cell proliferation dose response (IncuCyte ZOOM), 48 h. In kind it is cell-based. Particulars: Homo sapiens, OVCAR-3; OVCAR3, 48 h; read-out: GI50 (concentration inducing 50% reduction in cell proliferation). The procedure:
(§1) The in vitro effects of CX-5461 on human OVCA cells were evaluated using a panel of 32 established human OVCA cell lines. These cell lines were selected to be representative of a range of histologic OVCA subtypes (Supplementary Table 1). Increasing concentrations (1 nM–10 μM) of CX-5461 were used to assess the concentration of drug that induced a 50% reduction in cell proliferation (GI50) at 48 hours (h). […] There was no statistically significant correlation between TP53 mutation status and sensitivity to CX-5461 (Supplementary Table 1, Fig. 1b). The efficacy of growth inhibition by CX-5461 correlated with a higher rate of basal rDNA transcription in the sensitive compared with the resistant OVCA cell lines (Fig. 1c).
(§2) Fig. 1 Sensitivity of ovarian cancer (OVCA) cell lines to CX-5461. a CX-5461 doses that induce 50% growth inhibition (GI50) at 48 hours. Error bars represent mean ± standard deviation (SD). […]
(§3) For assessing OVCA cells’ sensitivity to CX-5461, dose response curves were generated for each cell line by plating cells in 96-well plates, culturing them for 24 hours and then treating them with either vehicle or increasing concentrations of drug (0, 0.001, 0.003, 0.01, 0.03, 0.1, 0.3, 1, 3, 10 and 30 μM CX-5461) for 48 h. Cell number was assessed using the IncuCyte ZOOM imaging system (Essen BioScience). […] During this time the degree of confluency was measured every 24 h. […]

The test system of another assay is OV90. Described as above. The class given is cell-based. Particulars: Homo sapiens, OV-90; OV90, 48 h; read-out: GI50 (concentration inducing 50% reduction in cell proliferation). The procedure:
as §1, §2, §3

The subject of assay [1] is panel of 32 established human OVCA cell lines. Put plainly: Cell proliferation dose response (IncuCyte ZOOM), 48 h, whole panel. In kind it is cell-based. Particulars: 32 OVCA cell lines, threshold for sensitive, read-out: geometric median of GI50. The procedure: as §1, §2, §3
Assay [2] has as its system G-quadruplex DNA (GQ) structures. Put plainly: Immunofluorescence of GQ DNA (1H6 antibody). Particulars: OVCAR8, OVCAR4 and OVCAR8 RAD51C KO cells; 1 h, 3 h and 24 h post-treatment; 1 μM. The class given is cell-based, human. The procedure: To examine the mechanism of activation of ATM/ATR signalling, we investigated the effects of CX-5461 treatment on the formation of GQ structures in OVCAR8, OVCAR8 RAD51C KO and OVCAR4 cells (Fig. 4a, b and Supplementary Fig. 4A–D).
Fig. 4 CX-5461 induces R-loops stabilization in HR-proficient OVCAR8 cells. a Co-immunofluorescence (Co-IF) of GQ DNA and UBF as a nucleolar marker in OVCAR8 cells and OVCAR8 RAD51C KO cells treated with either vehicle, 1 μM CX-5461 or 10 μM TMPyP4 for 3 h. Representative images of three biologically independent experiments. b Quantitation of GQ DNA immunofluorescence. Signal intensities were analyzed using CellProfiler. […] Representative images of two biologically independent experiments. d Quantitation of R-loops signal intensity was performed using CellProfiler. n = 230 cells per treatment condition were examined over two independent experiments. […] RNA was extracted and 47S rRNA precursor levels were determined using primers specific to the 5’ETS of pre-rRNA. Expression levels were normalized to NONO mRNA and expressed as a fold change relative to vehicle (n = 3 biologically independent experiments), error bars represent mean ± SEM, statistical analysis was performed using a two-sided one-way ANOVA, Tukey’s multiple comparisons test (adjusted p-values are shown). […]

With `Cc1cnc(CNC(=O)c2c(=O)c3ccc(N4CCCN(C)CC4)nc3n3c2sc2ccccc23)cn1` [CX-5461], the GI50 in the assay on OVCAR3 turned out to be 12 nM; in the assay on OV90, 5170 nM; in assay [1] it was 363 nM. For the same molecule, in assay [2], the GQ stabilization result is listed as “did not induce GQ stabilization”.
